# Experiments:
# [1] = tested on: Plasmodium; settings: literature; cited from earlier work
# [2] = tested on: human promyelocytic leukemia HL-60 cell line; settings: Matsumoto et al 2003; cited from earlier work
# [3] = tested on: ESKOL cells; experiment: Annexin V-FITC labelling of ESKOL cells (phosphatidylserine externalisation, flow cytometry); type: cell-based, human; settings: 1 μg/ml, 24 hours
# Source text: The induction of apoptosis was further confirmed by assessing the percentage of cells expressing phosphatidylserine at the outer leaflet of the plasma membrane by flow cytometry.
# The phosphatidylserine (PS) externalisation, a membrane marker of cells undergoing apoptosis, was quantified by specific binding of FITC-conjugated annexin V (Bender Medsystems, Vienna, Austria), with or without simultaneous labelling with propidium iodide (PI), according to a modification of the technique described by Koopman (Koopman et al, Blood 1994; 84:1415-1420). The percentages of annexin V-FITC positive and PI negative cells were determined by cytometry on an EPICS Altra flow cytometer (Beckman Coulter).
# The ESKOL cells (10^6/ml) were cultured in the absence (C=control) or the presence of 1 μg/ml of the various Allanblackia molecules. After 24 hours of incubation, the percentage of cells labelled with Annexin V-FITC was measured by flow cytometry as previously indicated. Results are expressed after subtraction of the value for control unstimulated cells. P values were estimated by Kolmogorov-Smirnov analysis using the Statview software.
# [4] = tested on: histamine H1 receptor; settings: Chairungsrilerd et al 1996; cited from earlier work
# [5] = tested on: ESKOL cells; experiment: Enrichment in cytoplasmic nucleosomes (DNA cleavage) in ESKOL cells; type: cell-based, human; settings: 2 days, 1 or 10 μg/ml; FIG. 2B
# Method: B/ The percentage of enrichment in cytoplasmic nucleosomes was evaluated simultaneously as a surrogate for DNA cleavage.
# The detection of cytoplasmic histone-associated DNA fragments (mono- and oligonucleosomes) was performed in cell lysates from aliquots of 20,000 cells using an ELISA with anti-histone and anti-DNA fragment mAbs (Cell Death Detection ELISA^PLUS, Roche Diagnostics, Indianapolis, Ind., USA) as previously described (Billard et al, Leuk Lymphoma 2002; 43: 1991-2002).
# [6] = tested on: normal PBMC; experiment: MTT cytotoxicity on normal PBMC; type: cell-based, human; settings: 5 or 10 μg/ml, 48 hours; FIG. 5B
# Method: (§1) FIG. 5: The effect of the compounds M1, M2, M4, M5 and M6 on the viability and apoptosis of normal lymphocytes was evaluated as indicated in the Examples section. A/ PBMC isolated from the blood of normal volunteers were incubated at 2×10^6/ml for 48 hours in the presence of medium alone (grey bar) or containing 1 μg/ml (black bar) or 10 μg/ml (slashed bars) of the different compounds. At the end of the incubation time, the percentage of enrichment in cytoplasmic nucleosomes was evaluated as indicated in the Examples Section. PBMC (A) and purified B lymphocytes (C) from normal blood donors were incubated for 48 hours with medium alone (grey bar) or containing 5 μg/ml (black bar) or 10 μg/ml (slashed bar) of the selected reagents M1, M2, M4 and M6. Viability was estimated after labelling the cells with a 5 hours pulse of MTT and determination of the absorbance at 540 nm as indicated in the Examples Section.
# (§2) Leukemia cells from B-CLL patients were adjusted at 2×10^6/ml and 200 μl aliquots were distributed in triplicate samples in the wells of a 96-well microtitration plate and cultured in the absence or presence of the various reagents. After 18 hours of incubation at 37° C. in a humidified atmosphere containing 5% CO2, 20 μl of a 5 mg/ml solution of MTT (Sigma, St Louis, Mo., USA) were added to the wells for an additional 6 hours incubation. The microplates were centrifuged at 400×g for 20 min, the supernatants carefully discarded and 200 μl of DMSO were added to the wells to dissolve the precipitates of formazan. The optical density was measured with the use of a microplate reader (Victor-2, Wallac, Perkin Elmer, Norwalk, Mont., USA) at the wavelength of 540 nm.
# (§3) Blood samples from healthy donors were obtained from the Institut Francais du Sang as residues from platelet preparations. The healthy blood donors were under 60 years old, according to the French legislation, and therefore they could not be exactly age-matched with the B-CLL patients. PBMC were prepared as described elsewhere (Zhao et al, Blood 1998; 92: 1031-1043) and normal B-lymphocytes were purified by positive selection on anti-CD19-coated magnetic beads according to the specifications of the manufacturer (Dynal, Oslo, Norway) (Kern et al, Blood 2004; 103: 679-688). Their purity usually ranged from 92% to 95%, as estimated by labelling with an anti-CD20-phycoerythrin (PE) antibody, and monocyte contamination never exceeded 2% (Kern et al, Blood 2004; 103: 679-688).
# [7] = tested on: human colon cancer DLD-1 cells; settings: Matsumoto 2005; cited from earlier work
# [8] = tested on: ESKOL cells; experiment: Antiproliferative effect on ESKOL cells (viable cell count, Coulter counter); type: cell-based, human; settings: 1 and 10 μg/ml; 1, 2 or 4 days; FIGS. 1A and 1B
# Method: FIG. 1: The antiproliferative effects of M1, M2, M4, M5 and M6 were compared as indicated in the Examples Section on ESKOL cells. ESKOL cells were seeded at 2×10^5 cells/ml in the wells of micro-titration plate in the presence or absence (medium alone: ◯, DMSO: […]) of M1 (□), M2 (▪), M4 (▴), M5 ([…]), M6 (◯) at the concentrations of 1 μg/ml (A) and 10 μg/ml (B). After various times of incubation (1, 2 or 4 days), aliquots were harvested and the concentration of viable cells was measured in a Coulter counter as indicated in the examples.
# The anti-proliferative effects of the isolated molecules were investigated on the ESKOL cell line derived from a hairy cell leukemia patient, a chronic B cell malignancy (Harvey et al, Leuk Res. 1991; 15: 733-744).
# Cells were routinely cultured at seeding densities of 2×10^6 cells/ml in RPMI-1640 medium supplemented with 2 mM glutamine, 1 mM sodium pyruvate, 100 IU/ml penicillin, 100 μg/ml streptomycin and 10% FCS (PAA Laboratories, Pasching, Austria) and cultures were performed at 37° C. in an humidified atmosphere containing 5% CO2.
# For the assay, ESKOL cells were seeded at 2×10^5/ml in 24-well microtitration plate, together with two concentrations (1 and 10 μg/ml) of the […] xanthones or 1% DMSO (solvent) as control. After 1, 2 and 4 days of culture, aliquots of cells were collected and the cell concentration was evaluated by counting the number of viable cells with a Coulter Multisizer counter Z2 (Coultronics, Margency, France) allowing the discrimination between viable and dead cells and debris according to size distribution.
# Cells were cultured in duplicates or triplicates and each experiment repeated 2 to 5 times.
# [9] = tested on: purified B-lymphocytes; experiment: MTT cytotoxicity on purified normal B-lymphocytes; type: cell-based, human; settings: 5 or 10 μg/ml, 48 hours; FIG. 5C
# Method: as §1, §2, §3
structure (smiles),measurement,setting,value
"COc1c(O)cc2oc3cc(O)c(CC=C(C)C)c(O)c3c(=O)c2c1CC=C(C)C [M2, α-mangostin]",antiplasmodial activity,[1],displays antiplasmodial activity
same,apoptosis induction in HL-60 cell line,[2],induces apoptosis
same,increase in the percentage of Annexin V positive ESKOL cells (in words),[3],significant increase
same,% Annexin V+ cells,"[3]; ESKOL cells, after subtraction of control value",15.0%
same,histamine H1 receptor antagonism,[4],histamine H1 receptor antagonist
same,DNA breakdown (enrichment in cytoplasmic nucleosomes) in ESKOL cells,[5],potent inducers of DNA breakdown
same,cytotoxic effect on normal PBMC (MTT),[6],somewhat sensitive
same,cell-cycle arrest and apoptosis in DLD-1 cells,[7],induces cell-cycle arrest and apoptosis
same,proliferation of ESKOL cells,[8],markedly and dose-dependently slowed down the proliferation
same,cytotoxic effect on purified normal B-lymphocytes (MTT),[9],somewhat sensitive
